Key:
[1] = Inhibition of BRAF V600E mutant in human A375 cells assessed as reduction in cell proliferation incubated for 96 hrs by MTT assay
[2] = Inhibition of BCR-ABL (unknown origin) expressed in mouse BA/F3 cells assessed as reduction in cell proliferation incubated for 48 hrs by MTT assay

SMILES | IC50 [1] | IC50 [2]
CCn1nc(C#Cc2cccc3cc(-c4cccc(C(F)(F)F)c4)ncc23)c2c(N)ncnc21 | > 10000 nM | 1110 nM
CC(C)n1nc(C#Cc2cccc(NC(=O)c3cccc(C(F)(F)F)c3)c2)c2c(N)ncnc21 | 97 nM | –
CC(C)n1nc(C#Cc2cccc3cc(-c4ccc(CN5CCN(C)CC5)cc4)ncc23)c2c(N)ncnc21 | > 10000 nM | 354 nM
CC(C)n1nc(C#Cc2cccc3cc(-c4cccc(C(F)(F)F)c4)ncc23)c2c(N)ncnc21 | > 10000 nM | 942 nM
Cc1ccc2cc(-c3cccc(C(F)(F)F)c3)ncc2c1C#Cc1nn(C(C)C)c2ncnc(N)c12 | 2300 nM | 435 nM

Source: BindingDB's records for doi:10.1016/j.ejmech.2018.01.053 (University of Southern California, 2018)
